Measured values published in ChEMBL document CHEMBL4418297, “2,5,6,7-tetrasubstituted thiazolo[4,5-b]pyridine derivatives and use thereof” (2018).

Test system: Mus musculus
Assay: Antiinflammatory activity in iv dosed ICR mouse model of CLP-induced sepsis assessed as increase in survival rate
Type: functional

| SMILES | Survival [%] |
| --- | --- |
| CCCNc1nc2nc3c(c(-c4ccc(OC)cc4)c2s1)CCCC3 | 40 |
| CCCNc1nc2nc3c(c(-c4ccc(OC)cc4)c2s1)CCCCC3 | 40 |
| CCCNc1nc2nc3c(c(-c4ccccc4)c2s1)CCCCC3 | 40 |
| O=[N+]([O-])c1ccc(-c2c3c(nc4nc(N5CCCC5)sc24)CCCC3)cc1 | 40 |
